Results taken from paper PMC8991199, “Promiscuity mapping of the S100 protein family using a high-throughput holdup assay” (Scientific Reports, 2022).

How the values were obtained:
Assay type in all cases: binding
[1] = molecular target: S100A10 (Homo sapiens, UniProt P60903); assay: direct fluorescence polarization (FP), S100A10; conditions: S100A10, 50 nM labeled foldamer, 20 mM HEPES pH 7.5, 150 mM NaCl, 1 mM CaCl2, 0.5 mM TCEP, 0.01% Tween20, quadratic fit, mean ± SEM, three technical repeats, threshold 1 mM
Description: HTP (and also low-throughput) measurements generally need to be validated by an orthogonal approach to eliminate experimental artifacts. […] In this assay, the association of the fluorescently labeled foldamer and the S100 protein of interest is monitored, through the change in polarization of the emitted light by the fluorophore upon the binding event. In direct FP, the presence of the fluorophore might change the binding affinity of some foldamers. […] Nevertheless, we assumed that the fluorophore would affect all foldamers that target the same binding site to the same degree, because the foldamer scaffold is rigid.
(§1) Briefly, S100 proteins were cloned into a modified pET15b vector with a TEV protease cleavable N-terminal His6-tag and expressed in Escherichia coli BL21 (DE3) cells, followed by Ni^2+-affinity chromatography. For HU assay, S100 proteins were further purified by either hydrophobic interaction chromatography or ion exchange chromatography without the cleavage of the N-terminal His6-tag applying standard conditions. For direct FP measurements, the N-terminal His6-tag was cleaved, and the S100 proteins were purified by hydrophobic interaction chromatography, ion exchange chromatography or size exclusion chromatography. The quality of the recombinant proteins was checked by SDS-PAGE analysis in all cases. The concentration of the recombinant S100 proteins was determined by UV spectrophotometry using the absorbance of Tyr and Trp residues.
(§2) In direct fluorescence polarization assays, S100 proteins were diluted in a buffer containing 50 nM labeled foldamer, 20 mM HEPES pH 7.5, 150 mM NaCl, 1 mM CaCl2, 0.5 mM TCEP and 0.01% Tween20. The dilution series (50 µl) were divided into three technical repeats and transferred (15 µl) to a 384-well microplate. In competitive fluorescence polarization assays, the buffer applied in direct measurements was supplemented with the S100 protein of interest to reach a saturation of 60–80%. This mixture was titrated with the competitor (i.e. the unlabeled peptide). Fluorescence polarization was measured in 8 different S100 concentrations (one of which contained no S100 protein) on a Synergy H4 plate reader using 485 ± 20 nm and 528 ± 20 nm band-pass filters for excitation and emission, respectively. The Kd values were obtained by fitting the data from the FP measurements with the python-based ProFit software using quadratic and competitive binding equation for direct and competitive FP, respectively. The detection threshold was based on two parameters. First, we rejected all fitted dissociation constants above 1 mM.

[2] = molecular target: T1, S100A5 (Homo sapiens, UniProt P33763); assay: direct fluorescence polarization (FP), S100A5; conditions: direct FP, S100A5, 50 nM labeled foldamer, 20 mM HEPES pH 7.5, 150 mM NaCl, 1 mM CaCl2, 0.5 mM TCEP, 0.01% Tween20, quadratic fit, mean ± SEM, three technical repeats, threshold 1 mM
T1 sequence (P33763 1-92): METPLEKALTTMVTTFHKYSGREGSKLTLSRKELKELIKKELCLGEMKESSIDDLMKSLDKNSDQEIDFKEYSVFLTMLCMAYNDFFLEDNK
Description: (§3) HTP (and also low-throughput) measurements generally need to be validated by an orthogonal approach to eliminate experimental artifacts. […] This way, we chose WL, IF, WW, YF, IL, VL, TW, RF, RR, TI, TM, and after resynthesizing with a fluorescent label at the C-terminus (Figs. S15–S26, Table S1), the S100ome was tested against the labeled foldamers by direct fluorescence polarization (FP) (Fig. 3A). In this assay, the association of the fluorescently labeled foldamer and the S100 protein of interest is monitored, through the change in polarization of the emitted light by the fluorophore upon the binding event. In direct FP, the presence of the fluorophore might change the binding affinity of some foldamers. […] Nevertheless, we assumed that the fluorophore would affect all foldamers that target the same binding site to the same degree, because the foldamer scaffold is rigid. Defining the threshold of detection at the dissociation constant of 1 mM, we identified 87 interactions between the selected foldamer fragments and the S100ome out of 220 possible interactions (Table 1, Fig. S4-14).
To ensure that foldamer fragments bind to the hydrophobic binding groove of S100 proteins, which opens upon binding of calcium ions, we performed FP experiments on a selected S100 protein, S100A5, in the presence of EDTA and TRTK12, an S100-binding peptide of 12 amino acids. […] Based on the similarity and redundancy among the S100 family, it can be assumed that all S100 proteins bind the members of the H14 foldamer library through their hydrophobic binding pocket in a Ca^2+-dependent manner.
as §1, §2

[3] = molecular target: T2, S100B (Homo sapiens, UniProt P04271); assay: direct fluorescence polarization (FP), S100B; conditions: 50 nM labeled foldamer, 20 mM HEPES pH 7.5, 150 mM NaCl, 1 mM CaCl2, 0.5 mM TCEP, 0.01% Tween20, quadratic fit, mean ± SEM, three technical repeats, threshold 1 mM
T2 sequence (P04271 1-92): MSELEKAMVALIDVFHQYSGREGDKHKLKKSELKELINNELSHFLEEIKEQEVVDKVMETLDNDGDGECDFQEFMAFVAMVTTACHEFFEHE
Description: as §3, §1, §2

[4] = molecular target: T3, S100A16 (Homo sapiens, UniProt Q96FQ6); assay: direct fluorescence polarization (FP), S100A16; conditions: S100A16, 50 nM labeled foldamer, 20 mM HEPES pH 7.5, 150 mM NaCl, 1 mM CaCl2, 0.5 mM TCEP, 0.01% Tween20, quadratic fit, mean ± SEM, three technical repeats, threshold 1 mM
T3 sequence (Q96FQ6 1-103): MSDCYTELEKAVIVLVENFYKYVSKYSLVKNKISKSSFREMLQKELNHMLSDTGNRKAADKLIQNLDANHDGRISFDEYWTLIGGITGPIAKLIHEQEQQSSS
Description: as §3, §1, §2

[5] = molecular target: T4, S100A12 (Homo sapiens, UniProt P80511); assay: direct fluorescence polarization (FP), S100A12; conditions: S100A12, 50 nM labeled foldamer, 20 mM HEPES pH 7.5, 150 mM NaCl, 1 mM CaCl2, 0.5 mM TCEP, 0.01% Tween20, quadratic fit, mean ± SEM, three technical repeats, threshold 1 mM
T4 sequence (P80511 1-92): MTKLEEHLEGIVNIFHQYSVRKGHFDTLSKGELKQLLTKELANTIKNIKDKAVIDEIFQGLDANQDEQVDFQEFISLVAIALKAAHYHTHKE
Description: as §3, §1, §2

[6] = molecular target: T5, S100G (Homo sapiens, UniProt P29377); assay: direct fluorescence polarization (FP), S100G; conditions: 50 nM labeled foldamer, 20 mM HEPES pH 7.5, 150 mM NaCl, 1 mM CaCl2, 0.5 mM TCEP, 0.01% Tween20, quadratic fit, mean ± SEM, three technical repeats, threshold 1 mM
T5 sequence (P29377 2-79): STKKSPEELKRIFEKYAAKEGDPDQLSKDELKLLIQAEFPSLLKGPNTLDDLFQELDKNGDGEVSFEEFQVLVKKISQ
Description: as §3, §1, §2

S100A10, sequence (P60903 whole entry): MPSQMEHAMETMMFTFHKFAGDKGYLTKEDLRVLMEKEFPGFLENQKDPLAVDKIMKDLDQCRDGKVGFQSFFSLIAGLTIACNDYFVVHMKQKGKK

Row | Structure (SMILES) | Kd [1] [µM] | Kd [2] [µM] | Kd [3] [µM] | Kd [4] [µM] | Kd [5] [µM] | Kd [6] [µM]
1 | N=C(N)NCCC[C@@H](CC(=O)N[C@H]1CCCC[C@@H]1C(=O)N[C@H]1CCCC[C@@H]1C(=O)N[C@H](CC(=O)N[C@H]1CCCC[C@@H]1C(=O)NCC(=O)N[C@@H](CCCCNC(=O)c1ccc2c(c1)C1(OC2=O)c2ccc(O)cc2Oc2cc(O)ccc21)C(N)=O)Cc1ccccc1)NC(=O)[C@H]1CCCC[C@@H]1N [fRF] | 320 ± 19 | 46 ± 1.2 | 230 ± 5.9 | > 1000 | > 1000 | > 1000
2 | CSCC[C@@H](CC(=O)N[C@H]1CCCC[C@@H]1C(=O)NCC(=O)N[C@@H](CCCCNC(=O)c1ccc2c(c1)C1(OC2=O)c2ccc(O)cc2Oc2cc(O)ccc21)C(N)=O)NC(=O)[C@H]1CCCC[C@@H]1NC(=O)[C@H]1CCCC[C@@H]1NC(=O)C[C@@H](NC(=O)[C@H]1CCCC[C@@H]1N)[C@@H](C)O [fTM] | > 1000 | 204 ± 9.2 | > 1000 | > 1000 | > 1000 | > 1000
3 | CC[C@H](C)[C@@H](CC(=O)N[C@H]1CCCC[C@@H]1C(=O)NCC(=O)N[C@@H](CCCCNC(=O)c1ccc2c(c1)C1(OC2=O)c2ccc(O)cc2Oc2cc(O)ccc21)C(N)=O)NC(=O)[C@H]1CCCC[C@@H]1NC(=O)[C@H]1CCCC[C@@H]1NC(=O)C[C@@H](NC(=O)[C@H]1CCCC[C@@H]1N)[C@@H](C)O [fTI] | > 1000 | 270 ± 14 | > 1000 | > 1000 | > 1000 | > 1000
4 | N=C(N)NCCC[C@@H](CC(=O)N[C@H]1CCCC[C@@H]1C(=O)NCC(=O)N[C@@H](CCCCNC(=O)c1ccc2c(c1)C1(OC2=O)c2ccc(O)cc2Oc2cc(O)ccc21)C(N)=O)NC(=O)[C@H]1CCCC[C@@H]1NC(=O)[C@H]1CCCC[C@@H]1NC(=O)C[C@H](CCCNC(=N)N)NC(=O)[C@H]1CCCC[C@@H]1N [fRR] | > 1000 | 45 ± 0.81 | 210 ± 26 | > 1000 | > 1000 | > 1000
5 | NC(=O)[C@H](CCCCNC(=O)c1ccc2c(c1)C1(OC2=O)c2ccc(O)cc2Oc2cc(O)ccc21)NC(=O)CNC(=O)[C@H]1CCCC[C@@H]1NC(=O)C[C@H](Cc1c[nH]c2ccccc12)NC(=O)[C@H]1CCCC[C@@H]1NC(=O)[C@H]1CCCC[C@@H]1NC(=O)C[C@H](Cc1c[nH]c2ccccc12)NC(=O)[C@H]1CCCC[C@@H]1N [fWW] | 150 ± 5.2 | 77 ± 2.8 | > 1000 | > 1000 | > 1000 | > 1000
6 | NC(=O)[C@H](CCCCNC(=O)c1ccc2c(c1)C1(OC2=O)c2ccc(O)cc2Oc2cc(O)ccc21)NC(=O)CNC(=O)[C@H]1CCCC[C@@H]1NC(=O)C[C@H](Cc1ccccc1)NC(=O)[C@H]1CCCC[C@@H]1NC(=O)[C@H]1CCCC[C@@H]1NC(=O)C[C@H](Cc1ccc(O)cc1)NC(=O)[C@H]1CCCC[C@@H]1N [fYF] | 70 ± 3.5 | 32 ± 1 | 28 ± 1.7 | > 1000 | > 1000 | > 1000
